# In PubChem BioAssay (NCI):
#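 Exposure lasted 48 hours, with cells grown in 96-well plates and compounds tested at five concentrations. TGI marks complete inhibition of growth.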
# Tests used:
# Test in all cases: NCI-60 cell line screen, 48 h
# SF-295 CNS = test system: SF-295 CNS
# RXF 393 renal = test system: RXF 393 renal
# EKVX NSCLC = test system: EKVX NSCLC
# MDA-MB-231 breast = test system: MDA-MB-231 breast
# HOP-92 NSCLC = test system: HOP-92 NSCLC
# DU-145 prostate = test system: DU-145 prostate
# SK-OV-3 ovarian = test system: SK-OV-3 ovarian
# NCI-H23 lung = test system: NCI-H23 lung
# LOX IMVI melanoma = test system: LOX IMVI melanoma
# SF-268 CNS = test system: SF-268 CNS
# HL-60(TB) leukemia = test system: HL-60(TB) leukemia
# NCI-H522 lung = test system: NCI-H522 lung
# MOLT-4 leukemia = test system: MOLT-4 leukemia
# K-562 leukemia = test system: K-562 leukemia
# CCRF-CEM leukemia = test system: CCRF-CEM leukemia
# PC-3 prostate = test system: PC-3 prostate
# KM12 colon = test system: KM12 colon
# SK-MEL-28 melanoma = test system: SK-MEL-28 melanoma
# OVCAR-5 ovarian = test system: OVCAR-5 ovarian
# COLO 205 colon = test system: COLO 205 colon
# UACC-62 melanoma = test system: UACC-62 melanoma
# U251 CNS = test system: U251 CNS
# MDA-MB-435 = test system: MDA-MB-435
# A549 NSCLC = test system: A549 NSCLC
# RPMI-8226 leukemia = test system: RPMI-8226 leukemia
# UO-31 renal = test system: UO-31 renal
# 786-0 renal = test system: 786-0 renal
# SN12C renal = test system: SN12C renal
# BT-549 breast = test system: BT-549 breast
# HCT-116 colon = test system: HCT-116 colon
# NCI-H226 lung = test system: NCI-H226 lung
# TK-10 renal = test system: TK-10 renal
# ACHN renal = test system: ACHN renal
# MCF7 breast = test system: MCF7 breast
# OVCAR-8 ovarian = test system: OVCAR-8 ovarian
# SW-620 colon = test system: SW-620 colon
# A498 renal = test system: A498 renal
# HS 578T breast = test system: HS 578T breast
# UACC-257 melanoma = test system: UACC-257 melanoma
# NCI/ADR-RES ovarian = test system: NCI/ADR-RES ovarian
# SNB-19 CNS = test system: SNB-19 CNS
# MDA-N = test system: MDA-N
# HCT-15 colon = test system: HCT-15 colon
# T-47D breast = test system: T-47D breast
# SK-MEL-5 melanoma = test system: SK-MEL-5 melanoma
# NCI-H460 lung = test system: NCI-H460 lung
# CAKI-1 renal = test system: CAKI-1 renal
# M14 melanoma = test system: M14 melanoma
# HCC-2998 colon = test system: HCC-2998 colon
# MALME-3M melanoma = test system: MALME-3M melanoma
# IGROV1 ovarian = test system: IGROV1 ovarian
# SK-MEL-2 melanoma = test system: SK-MEL-2 melanoma
# HOP-62 NSCLC = test system: HOP-62 NSCLC
# SR leukemia = test system: SR leukemia
# HT29 colon = test system: HT29 colon
# OVCAR-4 ovarian = test system: OVCAR-4 ovarian
# OVCAR-3 ovarian = test system: OVCAR-3 ovarian
# SF-539 CNS = test system: SF-539 CNS
smiles,measurement,setting,value
CC1=C(C)C2(C#N)C(=O)N3C(=NC(c4ccccc4)NC3c3ccccc3)C2(C#N)C(c2ccccc2)N1 (centres undefined),TGI,SF-295 CNS,> 100 µM
same,TGI,RXF 393 renal,> 100 µM
same,TGI,EKVX NSCLC,> 100 µM
same,TGI,MDA-MB-231 breast,> 100 µM
same,TGI,HOP-92 NSCLC,> 100 µM
same,TGI,DU-145 prostate,> 100 µM
same,TGI,SK-OV-3 ovarian,> 100 µM
same,TGI,NCI-H23 lung,> 100 µM
same,TGI,LOX IMVI melanoma,> 100 µM
same,TGI,SF-268 CNS,> 100 µM
same,TGI,HL-60(TB) leukemia,> 100 µM
same,TGI,NCI-H522 lung,> 100 µM
same,TGI,MOLT-4 leukemia,> 100 µM
same,TGI,K-562 leukemia,> 100 µM
same,TGI,CCRF-CEM leukemia,> 100 µM
same,TGI,PC-3 prostate,> 100 µM
same,TGI,KM12 colon,> 100 µM
same,TGI,SK-MEL-28 melanoma,> 100 µM
same,TGI,OVCAR-5 ovarian,> 100 µM
same,TGI,COLO 205 colon,> 100 µM
same,TGI,UACC-62 melanoma,> 100 µM
same,TGI,U251 CNS,> 100 µM
same,TGI,MDA-MB-435,> 100 µM
same,TGI,A549 NSCLC,> 100 µM
same,TGI,RPMI-8226 leukemia,> 100 µM
same,TGI,UO-31 renal,> 100 µM
same,TGI,786-0 renal,> 100 µM
same,TGI,SN12C renal,> 100 µM
same,TGI,BT-549 breast,> 100 µM
same,TGI,HCT-116 colon,> 100 µM
same,TGI,NCI-H226 lung,> 100 µM
same,TGI,TK-10 renal,> 100 µM
same,TGI,ACHN renal,> 100 µM
same,TGI,MCF7 breast,> 100 µM
same,TGI,OVCAR-8 ovarian,> 100 µM
same,TGI,SW-620 colon,> 100 µM
same,TGI,A498 renal,> 100 µM
same,TGI,HS 578T breast,> 100 µM
same,TGI,UACC-257 melanoma,> 100 µM
same,TGI,NCI/ADR-RES ovarian,> 100 µM
same,TGI,SNB-19 CNS,> 100 µM
same,TGI,MDA-N,> 100 µM
same,TGI,HCT-15 colon,> 100 µM
same,TGI,T-47D breast,> 100 µM
same,TGI,SK-MEL-5 melanoma,> 100 µM
same,TGI,NCI-H460 lung,> 100 µM
same,TGI,CAKI-1 renal,> 100 µM
same,TGI,M14 melanoma,> 100 µM
same,TGI,HCC-2998 colon,> 100 µM
same,TGI,MALME-3M melanoma,> 100 µM
same,TGI,IGROV1 ovarian,> 100 µM
same,TGI,SK-MEL-2 melanoma,> 100 µM
same,TGI,HOP-62 NSCLC,> 100 µM
same,TGI,SR leukemia,> 100 µM
same,TGI,HT29 colon,> 100 µM
same,TGI,OVCAR-4 ovarian,> 100 µM
COc1ccc2c(c1)CCc1cc(C(N)=O)c3nnnn3c1-2,TGI,SF-295 CNS,98.5 µM
same,TGI,RXF 393 renal,63 µM
same,TGI,MDA-MB-231 breast,> 100 µM
same,TGI,HOP-92 NSCLC,> 100 µM
same,TGI,DU-145 prostate,> 100 µM
same,TGI,OVCAR-3 ovarian,> 100 µM
same,TGI,SK-OV-3 ovarian,> 100 µM
same,TGI,NCI-H23 lung,> 100 µM
same,TGI,LOX IMVI melanoma,> 100 µM
same,TGI,SF-268 CNS,29.3 µM
same,TGI,HL-60(TB) leukemia,> 100 µM
same,TGI,NCI-H522 lung,> 100 µM
same,TGI,MOLT-4 leukemia,> 76.9 µM
same,TGI,K-562 leukemia,> 100 µM
same,TGI,CCRF-CEM leukemia,> 91.2 µM
same,TGI,PC-3 prostate,> 100 µM
same,TGI,KM12 colon,> 100 µM
same,TGI,SK-MEL-28 melanoma,> 100 µM
same,TGI,OVCAR-5 ovarian,> 100 µM
same,TGI,COLO 205 colon,> 100 µM
same,TGI,UACC-62 melanoma,23.9 µM
same,TGI,U251 CNS,> 67.4 µM
same,TGI,MDA-MB-435,> 100 µM
same,TGI,A549 NSCLC,> 100 µM
same,TGI,RPMI-8226 leukemia,> 100 µM
same,TGI,786-0 renal,> 100 µM
same,TGI,SN12C renal,> 100 µM
same,TGI,BT-549 breast,> 100 µM
same,TGI,HCT-116 colon,> 100 µM
same,TGI,NCI-H226 lung,> 100 µM
same,TGI,TK-10 renal,> 100 µM
same,TGI,ACHN renal,> 100 µM
same,TGI,MCF7 breast,> 100 µM
same,TGI,OVCAR-8 ovarian,> 100 µM
same,TGI,SW-620 colon,> 100 µM
same,TGI,A498 renal,62.2 µM
same,TGI,HS 578T breast,> 100 µM
same,TGI,UACC-257 melanoma,> 100 µM
same,TGI,NCI/ADR-RES ovarian,> 100 µM
same,TGI,SNB-19 CNS,> 100 µM
same,TGI,MDA-N,> 100 µM
same,TGI,HCT-15 colon,> 100 µM
same,TGI,T-47D breast,> 100 µM
same,TGI,SK-MEL-5 melanoma,> 100 µM
same,TGI,NCI-H460 lung,50.9 µM
same,TGI,CAKI-1 renal,> 100 µM
same,TGI,M14 melanoma,> 100 µM
same,TGI,HCC-2998 colon,> 100 µM
same,TGI,MALME-3M melanoma,> 100 µM
same,TGI,IGROV1 ovarian,> 100 µM
same,TGI,SK-MEL-2 melanoma,> 75.5 µM
same,TGI,HOP-62 NSCLC,> 100 µM
same,TGI,SR leukemia,> 100 µM
same,TGI,HT29 colon,> 100 µM
same,TGI,OVCAR-4 ovarian,> 100 µM
same,TGI,SF-539 CNS,> 100 µM
O=C(O)C1Cc2c([nH]c3ccccc23)C(CCCCO)N1 (centres undefined),TGI,SF-295 CNS,> 100 µM
same,TGI,RXF 393 renal,> 100 µM
same,TGI,EKVX NSCLC,> 100 µM
same,TGI,MDA-MB-231 breast,> 100 µM
same,TGI,HOP-92 NSCLC,> 100 µM
same,TGI,DU-145 prostate,> 100 µM
same,TGI,OVCAR-3 ovarian,> 100 µM
same,TGI,SK-OV-3 ovarian,> 100 µM
same,TGI,NCI-H23 lung,> 100 µM
same,TGI,LOX IMVI melanoma,> 100 µM
same,TGI,SF-268 CNS,> 100 µM
same,TGI,HL-60(TB) leukemia,> 100 µM
same,TGI,NCI-H522 lung,> 100 µM
same,TGI,MOLT-4 leukemia,> 100 µM
same,TGI,K-562 leukemia,> 100 µM
same,TGI,CCRF-CEM leukemia,> 100 µM
same,TGI,PC-3 prostate,> 100 µM
same,TGI,KM12 colon,> 100 µM
same,TGI,SK-MEL-28 melanoma,> 100 µM
same,TGI,OVCAR-5 ovarian,> 100 µM
same,TGI,COLO 205 colon,> 100 µM
same,TGI,UACC-62 melanoma,> 100 µM
same,TGI,U251 CNS,> 100 µM
same,TGI,MDA-MB-435,> 100 µM
same,TGI,A549 NSCLC,> 100 µM
same,TGI,RPMI-8226 leukemia,> 100 µM
same,TGI,UO-31 renal,> 100 µM
same,TGI,786-0 renal,> 100 µM
same,TGI,SN12C renal,> 100 µM
same,TGI,BT-549 breast,> 100 µM
same,TGI,HCT-116 colon,> 100 µM
same,TGI,NCI-H226 lung,> 100 µM
same,TGI,TK-10 renal,> 100 µM
same,TGI,ACHN renal,> 100 µM
same,TGI,MCF7 breast,> 100 µM
same,TGI,OVCAR-8 ovarian,> 100 µM
same,TGI,SW-620 colon,> 100 µM
same,TGI,A498 renal,> 100 µM
same,TGI,HS 578T breast,> 100 µM
same,TGI,UACC-257 melanoma,> 100 µM
same,TGI,NCI/ADR-RES ovarian,> 100 µM
same,TGI,SNB-19 CNS,> 100 µM
same,TGI,MDA-N,> 100 µM
same,TGI,HCT-15 colon,> 100 µM
same,TGI,T-47D breast,> 100 µM
same,TGI,SK-MEL-5 melanoma,> 100 µM
same,TGI,NCI-H460 lung,> 100 µM
same,TGI,CAKI-1 renal,> 100 µM
same,TGI,M14 melanoma,> 100 µM
same,TGI,MALME-3M melanoma,> 100 µM
same,TGI,IGROV1 ovarian,> 100 µM
same,TGI,SK-MEL-2 melanoma,> 100 µM
same,TGI,HOP-62 NSCLC,> 100 µM
same,TGI,SR leukemia,> 100 µM
same,TGI,HT29 colon,> 100 µM
same,TGI,OVCAR-4 ovarian,> 100 µM
same,TGI,SF-539 CNS,> 100 µM
